Measured values as given in patent publication US6537744B1, “Use of biomarkers in saliva to evaluate the toxicity of agents and the function of tissues in both biomedical and environmental applications” (priority 1995, dated 2003).

Target: saliva enzymes (esterase activity)
Assay: Inhibition of saliva enzymes (esterase activity) for detection of chemicals in water
Format: biochemical, human
Experimental: The presence of chemicals in milk, water, urine and other biological fluids are detected using saliva enzymes. The detection limit for the chemicals depends on the chemical potency and the number of chemicals present in the sample. The data presented here using saliva enzymes indicates a remarkably low concentration of des N-isofenphos (DNIO) in water (3 ng/mL) is detectable using the saliva enzyme method. A 50% inhibition of esterase activity is produced at 3 ng/mL DNIO. In this procedure, the sample is passed through […] solid phase absorption column (C-18) to extract and concentrate the chemicals as described by Knaak et al. (1993). The retention of the chemicals on C-18 column depends on their lipid solubility. The non-polar compounds usually have the highest retention. Then, the chemical is eluted with 1 mL of alcohol. A 0.1 mL of the elute is tested for the inhibition of saliva enzymes as described in this application. Toxicants in solid environmental samples, fruit and vegetables can be extracted with water or proper solvent. Samples of the extract are tested for enzymes inhibition. The inhibition of saliva enzyme indicates the presence of toxicant(s) in the sample and further analysis is needed to identify the specific chemical(s).

CCOP(N)(=O)Oc1ccccc1C(=O)OC(C)C (stereo not shown) [DNIO, des N-Isofenphos-oxon]
concentration producing 50% inhibition of esterase activity: 3 ng/mL
